Measured values as given in article PMC3038857, “Using Nuclear Receptor Activity to Stratify Hepatocarcinogens” (PLoS ONE, 2011).
Like-named read-outs stand apart in the source and are kept apart here.

Tests used:
[1] = biological target: T1, AHR (aryl hydrocarbon receptor) (Homo sapiens, UniProt P35869); experiment: ATG_Ahr_CIS: Factorial reporter gene assay (multiplexed transcription reporter, HepG2); type: cell-based
T1 construct: endogenous in cells; host or cells: HepG2
T1 sequence (P35869 11-848): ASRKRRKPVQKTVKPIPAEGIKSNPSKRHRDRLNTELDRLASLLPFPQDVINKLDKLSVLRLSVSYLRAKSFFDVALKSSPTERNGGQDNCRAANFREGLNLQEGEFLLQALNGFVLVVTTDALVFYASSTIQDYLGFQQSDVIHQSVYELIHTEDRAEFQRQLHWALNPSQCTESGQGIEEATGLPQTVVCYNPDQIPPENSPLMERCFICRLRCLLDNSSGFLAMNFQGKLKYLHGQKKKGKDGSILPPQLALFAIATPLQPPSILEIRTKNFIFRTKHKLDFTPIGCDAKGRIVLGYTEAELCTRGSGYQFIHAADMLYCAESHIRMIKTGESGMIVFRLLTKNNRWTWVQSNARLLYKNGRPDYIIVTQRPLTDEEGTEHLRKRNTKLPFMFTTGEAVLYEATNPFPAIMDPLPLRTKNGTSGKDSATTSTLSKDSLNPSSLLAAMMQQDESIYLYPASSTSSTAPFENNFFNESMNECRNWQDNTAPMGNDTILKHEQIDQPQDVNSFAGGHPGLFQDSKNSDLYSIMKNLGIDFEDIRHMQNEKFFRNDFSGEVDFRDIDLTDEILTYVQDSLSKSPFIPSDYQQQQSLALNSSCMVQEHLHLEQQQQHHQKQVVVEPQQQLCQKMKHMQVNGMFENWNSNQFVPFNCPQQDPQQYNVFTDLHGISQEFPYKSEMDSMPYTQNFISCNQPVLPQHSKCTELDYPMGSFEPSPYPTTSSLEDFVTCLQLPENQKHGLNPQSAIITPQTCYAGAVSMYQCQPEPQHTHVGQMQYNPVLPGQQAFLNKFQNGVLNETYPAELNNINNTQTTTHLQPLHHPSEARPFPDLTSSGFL
Method: (§1) A multiple reporter transcription unit (MRTU) library consisting of 48 transcription factor binding sites was transfected into the HepG2 human liver hepatoma cell line. In addition to the cis-acting reporter genes (CIS), a modification of the approach was used to generate a trans-system (TRANS) with a mammalian one-hybrid assay consisting of an additional 25 MRTU library reporting the activity of nuclear receptor super-family members. […] These assays were performed by Attagene Inc. (Morrisville NC) under contract to EPA.
(§2) In addition to the cis-acting reporter genes (CIS), a modification of the approach was used to generate a trans-system (TRANS) with a mammalian one-hybrid assay consisting of an additional 25 MRTU library reporting the activity of nuclear receptor super-family members. […] Chemicals were then tested in the CIS and TRANS assays at seven concentrations starting at the MTC and followed by three-fold serial dilutions. These assays were performed by Attagene Inc. (Morrisville NC) under contract to EPA. Detailed description of the methods, data and analysis methods for this dataset will be presented in a separate publication.

[2] = test system: CYP1A2; experiment: CLZD_CYP1A2: Change in expression of CYP1A2 (primary human hepatocytes); type: cell-based; details: 24 hr
Procedure, shortened: (§3)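 Cultured primary human hepatocytes treated with chemicals for 6, 24 or 48 hr across five concentrations spanning 0.004-40 µM, then transcript level measured by quantitative nuclease protection in a multiplexed format.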

[3] = test system: Rat Liver; details: chronic study, ref ToxRefDB, cited from earlier work
[4] = test system: Rat Liver; details: chronic study, ref ToxRefDB, cited from earlier work; remark: listed apart in the source
[5] = test system: Rat Liver; details: chronic study, ref ToxRefDB, cited from earlier work; remark: listed apart in the source
[6] = biological target: T2, PXR (NR1I2) (Homo sapiens, UniProt O75469); experiment: ATG_PXRE_CIS: Factorial reporter gene assay (HepG2); type: cell-based; set-up: endogenous in cells; host or cells: HepG2
T2 sequence (O75469 1-434): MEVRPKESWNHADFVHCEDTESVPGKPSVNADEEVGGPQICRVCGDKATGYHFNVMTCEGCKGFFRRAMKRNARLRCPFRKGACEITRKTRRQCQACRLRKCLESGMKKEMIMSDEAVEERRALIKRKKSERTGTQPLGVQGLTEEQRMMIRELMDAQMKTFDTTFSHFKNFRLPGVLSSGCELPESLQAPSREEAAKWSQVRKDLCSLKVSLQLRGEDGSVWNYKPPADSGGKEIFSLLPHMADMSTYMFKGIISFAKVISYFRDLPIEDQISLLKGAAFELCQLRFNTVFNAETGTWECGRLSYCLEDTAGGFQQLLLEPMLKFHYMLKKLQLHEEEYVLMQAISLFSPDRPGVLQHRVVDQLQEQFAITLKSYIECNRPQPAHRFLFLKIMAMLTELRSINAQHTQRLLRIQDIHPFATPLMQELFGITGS
Procedure, shortened: (§4)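 Compounds at seven concentrations (top at MTC, threefold serial) were applied to transfected HepG2 hepatoma cells, with PXRE scored by cis-element reporters and ERRg, FXR and PPARg scored by trans one-hybrid nuclear receptor reporters.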

[7] = biological target: T3, PPARG (peroxisome proliferator-activated receptor gamma) (Homo sapiens, UniProt P37231); experiment: ATG_PPARg_TRANS: Factorial reporter gene assay (HepG2); type: cell-based
T3 construct: expressed in transfected cells; host or cells: HepG2
T3 sequence (P37231 1-505): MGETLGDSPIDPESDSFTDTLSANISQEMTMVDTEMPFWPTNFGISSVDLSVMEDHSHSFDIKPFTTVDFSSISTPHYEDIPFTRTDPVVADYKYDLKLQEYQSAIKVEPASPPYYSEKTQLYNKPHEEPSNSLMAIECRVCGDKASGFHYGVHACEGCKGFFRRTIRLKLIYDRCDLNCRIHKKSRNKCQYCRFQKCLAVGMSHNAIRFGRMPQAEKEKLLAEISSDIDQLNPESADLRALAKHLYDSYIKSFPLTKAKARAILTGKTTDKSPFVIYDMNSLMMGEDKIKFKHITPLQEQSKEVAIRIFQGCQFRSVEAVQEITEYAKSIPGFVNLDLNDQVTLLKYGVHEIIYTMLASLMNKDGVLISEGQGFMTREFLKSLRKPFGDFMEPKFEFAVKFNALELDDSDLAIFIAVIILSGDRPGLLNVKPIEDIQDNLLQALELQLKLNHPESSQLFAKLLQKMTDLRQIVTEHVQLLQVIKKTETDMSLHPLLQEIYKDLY
Procedure, shortened: as §4

[8] = test system: CYP2B6; experiment: CLZD_CYP2B6: Change in expression of CYP2B6 (primary human hepatocytes); type: cell-based; details: 24 hr
Procedure, shortened: as §3

[9] = test system: CYP3A4; experiment: CLZD_CYP3A4: Change in expression of CYP3A4 (primary human hepatocytes); type: cell-based; details: 24 hr
Procedure, shortened: as §3

[10] = biological target: T4, PXR Human (NR1I2) (Homo sapiens, UniProt O75469); experiment: NCGC_PXR_Agonist_human: GAL4 BLAM Reporter gene assay: PXR Human; type: cell-based; details: agonist mode
T4 sequence (O75469 146-434 limits assumed): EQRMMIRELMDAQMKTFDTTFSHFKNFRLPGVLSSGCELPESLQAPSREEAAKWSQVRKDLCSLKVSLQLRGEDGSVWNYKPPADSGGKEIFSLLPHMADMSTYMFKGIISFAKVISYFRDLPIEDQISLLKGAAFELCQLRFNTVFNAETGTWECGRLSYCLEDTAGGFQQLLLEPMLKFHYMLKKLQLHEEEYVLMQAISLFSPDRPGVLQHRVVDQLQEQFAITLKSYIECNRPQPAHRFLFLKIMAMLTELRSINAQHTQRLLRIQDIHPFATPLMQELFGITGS
Method: These assays measure binding constants and enzyme inhibition values for nuclear receptors. The targets include [drawing 67] , [drawing 68] , [drawing 69] , [drawing 70] , [drawing 71] , [drawing 72] , [drawing 73] , [drawing 74] , [drawing 75] and [drawing 76] . Each of the nuclear receptor targets was measured in agonist mode. Assays were run at the NIH Chemical Genomics Center (Rockville, MD).
Cell-based HTS Assays: These assays measuring binding constants and enzyme inhibition values for nuclear receptors. The targets include AR, ER, FXR, LXR, PPARα, PPARδ, PPARγ, RXRα, RXRβ and PXR. Each of the nuclear receptor targets was measured in both agonist and antagonist mode, but the antagonist data is still undergoing analysis due to possible interference between cytotoxicity and assay activity, so antagonist mode data were not used in the present analysis. Assays were run at the NIH Chemical Genomics Center (Rockville, MD) as part of the Tox21 collaboration. […] The R^2 was required to be ≥0.5. Values where only the highest concentration exceeded 50% activity were excluded to eliminate weak or false positives. Detailed description of the methods, data and analysis methods for this dataset will be presented in a separate publication.

[11] = test system: Mouse Liver; details: chronic study, mouse liver; ref ToxRefDB; cited from earlier work
[12] = test system: Mouse Liver; details: chronic study, mouse liver; ref ToxRefDB; cited from earlier work; remark: listed apart in the source
[13] = test system: Mouse Liver; details: chronic study, mouse liver; ref ToxRefDB; cited from earlier work; remark: listed apart in the source
[14] = biological target: T2, PXR (NR1I2); experiment: ATG_PXR_TRANS: Factorial reporter gene assay (HepG2); type: cell-based; set-up: endogenous in cells; host or cells: HepG2; details: HepG2 reporter
Procedure, shortened: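 Seven concentrations per chemical, three-fold dilutions down from the MTC, were tested in HepG2 hepatoma cells. Those cells carried a multiple reporter transcription unit library, read either as cis transcription-factor-site reporters or as a trans mammalian one-hybrid panel for nuclear receptors.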

[15] = biological target: T5, ESR1 (estrogen receptor 1) (Homo sapiens, UniProt P03372); experiment: ATG_ERa_TRANS: Factorial reporter gene assay (HepG2); type: cell-based; details: HepG2 reporter
T5 construct: expressed in transfected cells; host or cells: HepG2
T5 sequence (P03372 whole entry): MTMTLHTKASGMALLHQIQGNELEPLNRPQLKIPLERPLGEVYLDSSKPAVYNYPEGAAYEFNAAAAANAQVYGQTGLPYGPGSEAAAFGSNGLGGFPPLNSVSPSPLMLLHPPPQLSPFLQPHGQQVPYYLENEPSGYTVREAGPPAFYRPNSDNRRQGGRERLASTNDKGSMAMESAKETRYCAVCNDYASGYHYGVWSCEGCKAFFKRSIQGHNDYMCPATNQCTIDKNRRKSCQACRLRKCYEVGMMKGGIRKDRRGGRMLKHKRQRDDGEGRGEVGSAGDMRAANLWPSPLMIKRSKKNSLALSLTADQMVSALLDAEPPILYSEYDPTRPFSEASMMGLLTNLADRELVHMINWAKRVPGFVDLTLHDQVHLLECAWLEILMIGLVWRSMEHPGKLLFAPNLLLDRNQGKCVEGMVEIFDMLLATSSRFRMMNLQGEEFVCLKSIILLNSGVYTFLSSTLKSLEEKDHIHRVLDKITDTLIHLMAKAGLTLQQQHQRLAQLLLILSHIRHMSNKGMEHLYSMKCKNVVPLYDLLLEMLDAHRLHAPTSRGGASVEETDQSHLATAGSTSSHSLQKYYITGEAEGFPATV
Method: as §1, §2

Row | Structure (SMILES) | ATG_Ahr_CIS ([1]; HepG2) | CLZD_CYP1A2_24 [2] | CHR_Rat_Liver_1_AnyLesion ([3]; rat) | CHR_Rat_Liver_2_PreneoplasticLesion ([4]; rat) | CHR_Rat_Liver_3_NeoplasticLesion ([5]; rat) | CHR_Mouse_Liver_1_AnyLesion [11] | CHR_Mouse_Liver_2_PreneoplasticLesion [12] | CHR_Mouse_Liver_3_NeoplasticLesion [13] | CHR_Rat_Liver_1_AnyLesion ([3]; rat liver) | CHR_Rat_Liver_2_PreneoplasticLesion ([4]; rat liver) | CHR_Rat_Liver_3_NeoplasticLesion ([5]; rat liver) | ATG_PXRE_CIS ([6]; HepG2 reporter) | further results
1 | Nc1c(Cl)c(Cl)nc(C(=O)O)c1Cl [r245] | 4.523 | 4.952 | 6 | 0 | 0 |  |  |  |  |  |  |  | ATG_PXRE_CIS ([6]; HepG2): 4.26
2 | CCC(=O)C1C(=O)CC(C(=O)[O-])CC1=O.CCC(=O)C1C(=O)CC(C(=O)[O-])CC1=O.[Ca+2] (stereo not shown) [r254] | 4.215 |  | 0 | 0 | 0 |  |  |  |  |  |  |  | ATG_PPARg_TRANS ([7]; HepG2): 4.409
3 | CCOC(=O)COc1cc(-c2nn(C)c(OC(F)F)c2Cl)c(F)cc1Cl [r271] |  |  |  |  |  | 6 | 6 | 6 | 6 | 6 | 0 | 4.26 | ATG_PPARg_TRANS ([7]; HepG2 reporter): 4.328; CLZD_CYP2B6_24 [8]: 4.918; CLZD_CYP3A4_24 [9]: 5.138; NCGC_PXR_Agonist_human [10]: 4.477; ATG_PXR_TRANS [14]: 4.538
4 | O=c1n(Cl)c(=O)n(Cl)c(=O)n1Cl [r288] |  | 5.117 |  |  |  |  |  |  |  |  |  | 4.337 | ATG_Ahr_CIS ([1]; HepG2 reporter): 4.509
5 | Cc1c(F)c(F)c(COC(=O)C2C(/C=C(\Cl)C(F)(F)F)C2(C)C)c(F)c1F (stereo not shown) [r294] |  |  |  |  |  | 6 | 6 | 6 | 0 | 0 | 0 | 4.886 | ATG_ERa_TRANS [15]: 4.31
